Source: US7892831B2, “Method for in vitro mass culture of Aloe vera” (priority 2006, dated 2011)

Tested on: regenerated Aloe vera shoots
Assay: in vitro rooting of regenerated Aloe vera shoots
Format: cell-based, Aloe vera (Aloe barbadensis)
Details: MS supplemented with IAA (0.5, 1.0 or 2.0 mg/L); hormone-free media gave 100% rooting in 3 weeks
Experimental: Regenerated shoots were rooted in both media containing indole acetic acid (0.5, 1.0, or 2.0 mg/L LAA) and MS media lacking any hormones. Shoots were more successfully rooted in the MS media lacking hormones. The culture conditions were the same as those used for initiation.

indole acetic acid [IAA]
rooting of shoots: no rooting was observed
